Experimental data as given in PubChem BioAssay AID1963973 (Molecular Pharmacology Branch, DTP, NCI, 2024).

Tested on: 883617-216-R-J1-PDC tumor spheroids, viability
Assay: Anticancer human tumor 883617-216-R-J1-PDC patient-derived bladder carcinoma cell line growth inhibition [PI3K]
Conditions: spheroids with HUVEC and MSC; for IC50: curve of first compound; for viability, T/C: stronger effect = lower value; active means viability on the fitted dose curve at most 10% of control; inactive means the rest
How it was run: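 Complex 3D spheroids (cancer cells + endothelial HUVEC + mesenchymal stem cells); drug pairs of targeted agent x inavolisib/alpelisib/duvelisib/copanlisib; half-log series from ~Cmax, max 10 microM if Cmax unknown; endpoint viability.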

[1] = second compound 0.0316 µM, first compound 0.0316 µM
[2] = second compound 0.0316 µM, first compound 0.1 µM
[3] = second compound 0.0316 µM, first compound 0.316 µM
[4] = second compound 0.0316 µM, first compound 1 µM
[5] = second compound 0.0316 µM, first compound 3.16 µM
[6] = second compound 0.0316 µM, first compound 10 µM
[7] = second compound 0.1 µM, first compound 0.0316 µM
[8] = second compound 0.1 µM, first compound 0.1 µM
[9] = second compound 0.1 µM, first compound 0.316 µM
[10] = second compound 0.1 µM, first compound 1 µM
[11] = second compound 0.1 µM, first compound 3.16 µM
[12] = second compound 0.1 µM, first compound 10 µM
[13] = second compound 0.316 µM, first compound 0.0316 µM
[14] = second compound 0.316 µM, first compound 0.1 µM
[15] = second compound 0.316 µM, first compound 0.316 µM
[16] = second compound 0.316 µM, first compound 1 µM
[17] = second compound 0.316 µM, first compound 3.16 µM
[18] = second compound 0.316 µM, first compound 10 µM
[19] = second compound 1 µM, first compound 0.0316 µM
[20] = second compound 1 µM, first compound 0.1 µM
[21] = second compound 1 µM, first compound 0.316 µM
[22] = second compound 1 µM, first compound 1 µM
[23] = second compound 1 µM, first compound 3.16 µM
[24] = second compound 1 µM, first compound 10 µM
[25] = second compound 3.16 µM, first compound 0.0316 µM
[26] = second compound 3.16 µM, first compound 0.1 µM
[27] = second compound 3.16 µM, first compound 0.316 µM
[28] = second compound 3.16 µM, first compound 1 µM
[29] = second compound 3.16 µM, first compound 3.16 µM
[30] = second compound 3.16 µM, first compound 10 µM
[31] = second compound 10 µM, first compound 0.0316 µM
[32] = second compound 10 µM, first compound 0.1 µM
[33] = second compound 10 µM, first compound 0.316 µM
[34] = second compound 10 µM, first compound 1 µM
[35] = second compound 10 µM, first compound 3.16 µM
[36] = second compound 10 µM, first compound 10 µM
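Further: spheroids exposed to agents for 7 days before the viability read.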

C#Cc1c(F)ccc2cc(O)cc(-c3ncc4c(N5CC6CCC(C5)N6)nc(OCC56CCCN5CC(F)C6)nc4c3F)c12 (stereo unspecified) + CC(Nc1ncnc2nc[nH]c12)c1cc2cccc(Cl)c2c(=O)n1-c1ccccc1
5.97 µM: IC50 (second compound 3.16 µM)
inactive: viability, T/C [1] 91.5% | viability, T/C [2] 109% | viability, T/C [3] 84.2% | viability, T/C [4] 94.8% | viability, T/C [5] 78% | viability, T/C [6] 61.1% | viability, T/C [7] 101% | viability, T/C [8] 96.7% | viability, T/C [9] 95.1% | viability, T/C [10] 84.9% | viability, T/C [11] 94.8% | viability, T/C [12] 56.5% | viability, T/C [13] 77.6% | viability, T/C [14] 86.1% | viability, T/C [15] 78.5% | viability, T/C [16] 94.3% | viability, T/C [17] 76.4% | viability, T/C [18] 54.5% | viability, T/C [19] 84.1% | viability, T/C [20] 81.9% | viability, T/C [21] 74.2% | viability, T/C [22] 73% | viability, T/C [23] 69.9% | viability, T/C [24] 49.7% | viability, T/C [25] 77.6% | viability, T/C [26] 70.4% | viability, T/C [27] 60.3% | viability, T/C [28] 70.7% | viability, T/C [29] 55.1% | viability, T/C [30] 44.3% | viability, T/C [31] 52.1% | viability, T/C [32] 56.4% | viability, T/C [33] 39.1% | viability, T/C [34] 45.1% | viability, T/C [35] 33.2% | viability, T/C [36] 26.6%
0.12 µM: IC50 (second compound 10 µM)
> 10 µM: IC50 (second compound 0.0316 µM) | IC50 (second compound 0.1 µM) | IC50 (second compound 0.316 µM) | IC50 (second compound 1 µM)

CC1(C)CCC(Nc2ncc(C(F)(F)F)c(-c3c[nH]c4c(P(C)(C)=O)c(C#N)ccc34)n2)CN1 (stereo unspecified) + CC(Nc1ncnc2nc[nH]c12)c1cc2cccc(Cl)c2c(=O)n1-c1ccccc1
active: viability, T/C [6] 0.45% | viability, T/C [12] 1.12% | viability, T/C [18] 1.62% | viability, T/C [24] 0.54% | viability, T/C [30] 1.34% | viability, T/C [36] 0.84%
< 0.0316 µM: IC50 (second compound 0.0316 µM) | IC50 (second compound 0.1 µM) | IC50 (second compound 0.316 µM) | IC50 (second compound 1 µM) | IC50 (second compound 3.16 µM) | IC50 (second compound 10 µM)
inactive: viability, T/C [1] 37.5% | viability, T/C [2] 37.6% | viability, T/C [3] 36.1% | viability, T/C [4] 31.7% | viability, T/C [5] 14.5% | viability, T/C [7] 36.2% | viability, T/C [8] 30.1% | viability, T/C [9] 32.6% | viability, T/C [10] 30.9% | viability, T/C [11] 13.9% | viability, T/C [13] 33.4% | viability, T/C [14] 35.1% | viability, T/C [15] 31.1% | viability, T/C [16] 26.5% | viability, T/C [17] 13.9% | viability, T/C [19] 33.6% | viability, T/C [20] 33.7% | viability, T/C [21] 28.8% | viability, T/C [22] 28.1% | viability, T/C [23] 11.7% | viability, T/C [25] 29.7% | viability, T/C [26] 27.3% | viability, T/C [27] 28.8% | viability, T/C [28] 24.7% | viability, T/C [29] 15% | viability, T/C [31] 25.7% | viability, T/C [32] 20.8% | viability, T/C [33] 21.8% | viability, T/C [34] 20.9% | viability, T/C [35] 19.2%

Cn1cnc2c(F)c(Nc3ccc(Br)cc3Cl)c(C(=O)NOCCO)cc21 + COc1c(OCCCN2CCOCC2)ccc2c3n(c(=NC(=O)c4cnc(N)nc4)nc12)CCN3
0.0236 µM: IC50 (second compound 0.00316 µM)
inactive: viability, T/C (second compound 0.00316 µM, first compound 0.00949 µM) 59.8% | viability, T/C (second compound 0.00316 µM, first compound 0.03 µM) 43.9% | viability, T/C (second compound 0.00316 µM, first compound 0.0949 µM) 37.1% | viability, T/C (second compound 0.00316 µM, first compound 0.3 µM) 39.7% | viability, T/C (second compound 0.00316 µM, first compound 0.949 µM) 22.8% | viability, T/C (second compound 0.00316 µM, first compound 3 µM) 18.9% | viability, T/C (second compound 0.01 µM, first compound 0.00949 µM) 44.2% | viability, T/C (second compound 0.01 µM, first compound 0.03 µM) 42.5% | viability, T/C (second compound 0.01 µM, first compound 0.0949 µM) 27% | viability, T/C (second compound 0.01 µM, first compound 0.3 µM) 21.2% | viability, T/C (second compound 0.01 µM, first compound 0.949 µM) 22.8% | viability, T/C (second compound 0.01 µM, first compound 3 µM) 15.2% | viability, T/C (second compound 0.0316 µM, first compound 0.00949 µM) 23.1% | viability, T/C (second compound 0.0316 µM, first compound 0.03 µM) 20.8% | viability, T/C (second compound 0.0316 µM, first compound 0.0949 µM) 16.4% | viability, T/C (second compound 0.0316 µM, first compound 0.3 µM) 14.1% | viability, T/C (second compound 0.0316 µM, first compound 0.949 µM) 11.8%
active: viability, T/C (second compound 0.0316 µM, first compound 3 µM) 7.94% | viability, T/C (second compound 0.1 µM, first compound 0.00949 µM) 9.95% | viability, T/C (second compound 0.1 µM, first compound 0.03 µM) 7.44% | viability, T/C (second compound 0.1 µM, first compound 0.0949 µM) 5.9% | viability, T/C (second compound 0.1 µM, first compound 0.3 µM) 4.34% | viability, T/C (second compound 0.1 µM, first compound 0.949 µM) 3.93% | viability, T/C (second compound 0.1 µM, first compound 3 µM) 2.03% | viability, T/C (second compound 0.316 µM, first compound 0.00949 µM) 3.44% | viability, T/C (second compound 0.316 µM, first compound 0.03 µM) 2.07% | viability, T/C (second compound 0.316 µM, first compound 0.0949 µM) 1.3% | viability, T/C (second compound 0.316 µM, first compound 0.3 µM) 1.34% | viability, T/C (second compound 0.316 µM, first compound 0.949 µM) 0.72% | viability, T/C (second compound 0.316 µM, first compound 3 µM) 0.47% | viability, T/C (second compound 1 µM, first compound 0.00949 µM) 1.2% | viability, T/C (second compound 1 µM, first compound 0.03 µM) 0.53% | viability, T/C (second compound 1 µM, first compound 0.0949 µM) 0.38% | viability, T/C (second compound 1 µM, first compound 0.3 µM) 0.39% | viability, T/C (second compound 1 µM, first compound 0.949 µM) 0.18% | viability, T/C (second compound 1 µM, first compound 3 µM) 0.21%
< 0.00949 µM: IC50 (second compound 0.01 µM) | IC50 (second compound 0.0316 µM) | IC50 (second compound 0.1 µM) | IC50 (second compound 0.316 µM) | IC50 (second compound 1 µM)
